We go through 1 compound from patent publication US11815509B2, “Cell line and uses thereof” (priority 2017, dated 2023).

For one data set, the system named is MUTZ-3 cells. Particulars: 24 h stimulation, compared between the two chemicals, FIG. 6.
Another data set relates to SenzaCell cells. Particulars: 24 h stimulation, compared between the two chemicals, FIG. 6.

As to `C=CC(=O)OCCO` [2-hydroxyethylacrylate], the “SVM prediction value (prediction pattern)” value with MUTZ-3 cells and with SenzaCell cells was “higher prediction value than DNCB” throughout.
